Data: patent publication US20120029187A1, “HALOALKYLSULFONANILIDE DERIVATIVE” (Nissan Chemical Industries, Ltd., priority 2009, published 2012)

Columns and labels:
Assay type in all cases: in vivo
[1] = system: barnyardgrass; assay: Test Example 1: herbicidal effects in preemergence treatment under submerged conditions; conditions: dose 2.52 g/a
Procedure, shortened: (§1)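 Submerged conditions, 4 cm water over alluvial soil. Weeds sown and 2.5-leaf rice transplanted; compound applied preemergence to water surface, doses in g per are. Greenhouse, 25 to 30° C., three weeks, then 0–5 mortality rating.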

[2] = system: bulrush; assay: as above; conditions: dose 2.52 g/a
Procedure, shortened: as §1

[3] = system: ducksalad; assay: as above; conditions: dose 2.52 g/a
Procedure, shortened: as §1

[4] = system: transplanted rice; assay: Test Example 1: preemergence treatment under submerged conditions, effect on crop; conditions: dose 2.52 g/a
Procedure, shortened: as §1

[5] = system: barnyardgrass; assay: Test Example 2: herbicidal effects during the vegetation period under submerged conditions; conditions: treatment during the vegetation period under submerged conditions; dose 2.52 g/a
Procedure, shortened: (§2)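 Barnyardgrass, bulrush and ducksalad were co-sown in alluvial soil flooded to 4 cm and grown in a greenhouse at 25 to 30° C. At the 1- or 2-leaf stage, water-diluted emulsifiable concentrates went onto the water surface at set doses (g/a). Herbicidal effect was scored three weeks later on a graded scale.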

[6] = system: bulrush; assay: as above; conditions: treatment during the vegetation period under submerged conditions; dose 2.52 g/a
Procedure, shortened: as §2

[7] = system: ducksalad; assay: as above; conditions: treatment during the vegetation period under submerged conditions; dose 2.52 g/a
Procedure, shortened: as §2

[8] = system: Italian ryegrass; assay: Test Example 3: herbicidal effects in soil treatment; conditions: dose 3.2 g/a
Procedure, shortened: (§3)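 Seeds were sown in sterilized diluvial soil and covered with about 1.5 cm of soil. Compounds, formulated as emulsifiable concentrates and diluted with water, were sprayed evenly over the soil surface at set doses in g/a. Herbicidal effect was scored on a rating scale three weeks later.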

[9] = system: barnyardgrass; assay: as above; conditions: dose 3.2 g/a
Procedure, shortened: as §3

[10] = system: beadstraw; assay: as above; conditions: dose 3.2 g/a
Procedure, shortened: as §3

[11] = system: common chickweed; assay: as above; conditions: dose 3.2 g/a
Procedure, shortened: as §3

[12] = system: common lambsquater; assay: as above; conditions: dose 3.2 g/a
Procedure, shortened: as §3

[13] = system: common ragweed; assay: as above; conditions: dose 3.2 g/a
Procedure, shortened: as §3

[14] = system: giant foxtail; assay: as above; conditions: dose 3.2 g/a
Procedure, shortened: as §3

[15] = system: large crabgrass; assay: as above; conditions: dose 3.2 g/a
Procedure, shortened: as §3

[16] = system: redroot pigweed; assay: as above; conditions: dose 3.2 g/a
Procedure, shortened: as §3

[17] = system: velvetleaf; assay: as above; conditions: dose 3.2 g/a
Procedure, shortened: as §3

[18] = system: water foxtail; assay: as above; conditions: dose 3.2 g/a
Procedure, shortened: as §3

[19] = system: Italian ryegrass; assay: Test Example 4: herbicidal effect in foliage treatment; conditions: dose 3.2 g/a
Procedure, shortened: (§4)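 Seeds were spot-sown in boxes of sterilized diluvial soil and raised in a greenhouse (25 to 30° C) for 14 days before a single foliar application. Compounds were applied as emulsifiable concentrates diluted with water, at predetermined doses in g/a. Injury was graded three weeks post-spray.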

[20] = system: barnyardgrass; assay: as above; conditions: dose 3.2 g/a
Procedure, shortened: as §4

[21] = system: beadstraw; assay: as above; conditions: dose 3.2 g/a, three weeks after application
Procedure, shortened: as §4

[22] = system: common chickweed; assay: as above; conditions: dose 3.2 g/a
Procedure, shortened: as §4

[23] = system: common lambsquater; assay: as above; conditions: dose 3.2 g/a
Procedure, shortened: as §4

[24] = system: common ragweed; assay: as above; conditions: dose 3.2 g/a
Procedure, shortened: as §4

[25] = system: giant foxtail; assay: as above; conditions: dose 3.2 g/a
Procedure, shortened: as §4

[26] = system: large crabgrass; assay: as above; conditions: dose 3.2 g/a
Procedure, shortened: as §4

[27] = system: posumbu knotweed; assay: as above; conditions: dose 3.2 g/a
Procedure, shortened: as §4

[28] = system: redroot pigweed; assay: as above; conditions: dose 3.2 g/a
Procedure, shortened: as §4

[29] = system: velvetleaf; assay: as above; conditions: dose 3.2 g/a
Procedure, shortened: as §4

[30] = system: water foxtail; assay: as above; conditions: dose 3.2 g/a
Procedure, shortened: as §4

[31] = three weeks after the application

O=C1CC2(CCC2)OCN1Cc1ccccc1NS(=O)(=O)C(F)(F)F [II-61]
A: barnyardgrass, herbicidal effect (evaluation scale 0-5) [1]: 5 (mortality of 90% or above (nearly complete death)) | B: bulrush, herbicidal effect (evaluation scale 0-5) [2]: 5 (mortality of 90% or above (nearly complete death)) | C: ducksalad, herbicidal effect (evaluation scale 0-5) [3]: 5 (mortality of 90% or above (nearly complete death)) | a: transplanted rice, effect on crop (evaluation scale 0-5) [4]: 2 (mortality of at least 20% and less than 40%) | A: barnyardgrass, herbicidal effect (evaluation scale 0-5) [5]: 5 (mortality of 90% or above (nearly complete death)) | B: bulrush, herbicidal effect (evaluation scale 0-5) [6]: 5 (mortality of 90% or above (nearly complete death)) | C: ducksalad, herbicidal effect (evaluation scale 0-5) [7]: 5 (mortality of 90% or above (nearly complete death)) | H: Italian ryegrass, herbicidal effect (evaluation scale 0-5) [8]: 5 (mortality of 90% or above (nearly complete death)) | A: barnyardgrass, herbicidal effect (evaluation scale 0-5) [9]: 5 (mortality of 90% or above (nearly complete death)) | O: beadstraw, herbicidal effect (evaluation scale 0-5) [10]: 5 (mortality of 90% or above (nearly complete death)) | N: common chickweed, herbicidal effect (evaluation scale 0-5) [11]: 5 (mortality of 90% or above (nearly complete death)) | L: common lambsquater, herbicidal effect (evaluation scale 0-5) [12]: 5 (mortality of 90% or above (nearly complete death)) | J: common ragweed, herbicidal effect (evaluation scale 0-5) [13]: 4 (mortality of at least 70% and less than 90%) | E: giant foxtail, herbicidal effect (evaluation scale 0-5) [14]: 5 (mortality of 90% or above (nearly complete death)) | D: large crabgrass, herbicidal effect (evaluation scale 0-5) [15]: 5 (mortality of 90% or above (nearly complete death)) | K: redroot pigweed, herbicidal effect (evaluation scale 0-5) [16]: 5 (mortality of 90% or above (nearly complete death)) | I: velvetleaf, herbicidal effect (evaluation scale 0-5) [17]: 5 (mortality of 90% or above (nearly complete death)) | G: water foxtail, herbicidal effect (evaluation scale 0-5) [18]: 5 (mortality of 90% or above (nearly complete death)) | H: Italian ryegrass, herbicidal effect ([19]; three weeks after application): 4 (mortality of at least 70% and less than 90%) | A: barnyardgrass, herbicidal effect ([20]; three weeks after application): 5 (mortality of 90% or above (nearly complete death)) | O: beadstraw, herbicidal effect [21]: 3 (mortality of at least 40% and less than 70%) | N: common chickweed, herbicidal effect ([22]; three weeks after application): 4 (mortality of at least 70% and less than 90%) | L: common lambsquater, herbicidal effect ([23]; three weeks after application): 3 (mortality of at least 40% and less than 70%) | J: common ragweed, herbicidal effect ([24]; three weeks after application): 3 (mortality of at least 40% and less than 70%) | E: giant foxtail, herbicidal effect ([25]; three weeks after application): 5 (mortality of 90% or above (nearly complete death)) | D: large crabgrass, herbicidal effect ([26]; three weeks after application): 4 (mortality of at least 70% and less than 90%) | M: posumbu knotweed, herbicidal effect ([27]; three weeks after application): 4 (mortality of at least 70% and less than 90%) | K: redroot pigweed, herbicidal effect ([28]; three weeks after application): 0 (mortality of less than 5% (almost ineffective)) | I: velvetleaf, herbicidal effect ([29]; three weeks after application): 5 (mortality of 90% or above (nearly complete death)) | G: water foxtail, herbicidal effect ([30]; three weeks after application): 5 (mortality of 90% or above (nearly complete death))

CCOC(=O)N(c1ccccc1CN1COC2(CCCC2)C(Br)C1=O)S(=O)(=O)C(F)(F)F (centres unmarked) [II-77]
A: barnyardgrass, herbicidal effect (evaluation scale 0-5) [1]: 5 (mortality of 90% or above (nearly complete death)) | B: bulrush, herbicidal effect (evaluation scale 0-5) [2]: 5 (mortality of 90% or above (nearly complete death)) | C: ducksalad, herbicidal effect (evaluation scale 0-5) [3]: 5 (mortality of 90% or above (nearly complete death)) | a: transplanted rice, effect on crop (evaluation scale 0-5) [4]: 0 (mortality of less than 5% (almost ineffective)) | A: barnyardgrass, herbicidal effect (evaluation scale 0-5) [5]: 0 (mortality of less than 5% (almost ineffective)) | B: bulrush, herbicidal effect (evaluation scale 0-5) [6]: 5 (mortality of 90% or above (nearly complete death)) | C: ducksalad, herbicidal effect (evaluation scale 0-5) [7]: 4 (mortality of at least 70% and less than 90%) | herbicidal effect, H: Italian ryegrass [8]: 1 (mortality of at least 5% and less than 20%) | herbicidal effect, A: barnyardgrass [9]: 4 (mortality of at least 70% and less than 90%) | herbicidal effect, O: beadstraw [10]: 0 (mortality of less than 5% (almost ineffective)) | herbicidal effect, N: common chickweed [11]: 4 (mortality of at least 70% and less than 90%) | herbicidal effect, L: common lambsquater [12]: 5 (mortality of 90% or above (nearly complete death)) | herbicidal effect, J: common ragweed [13]: 0 (mortality of less than 5% (almost ineffective)) | herbicidal effect, E: giant foxtail [14]: 1 (mortality of at least 5% and less than 20%) | herbicidal effect, D: large crabgrass [15]: 5 (mortality of 90% or above (nearly complete death)) | herbicidal effect, K: redroot pigweed [16]: 4 (mortality of at least 70% and less than 90%) | herbicidal effect, I: velvetleaf [17]: 5 (mortality of 90% or above (nearly complete death)) | herbicidal effect, G: water foxtail [18]: 3 (mortality of at least 40% and less than 70%) | H: Italian ryegrass, herbicidal effect [19, 31]: 0 (mortality of less than 5% (almost ineffective)) | A: barnyardgrass, herbicidal effect [20, 31]: 4 (mortality of at least 70% and less than 90%) | N: common chickweed, herbicidal effect [22, 31]: 3 (mortality of at least 40% and less than 70%) | L: common lambsquater, herbicidal effect [23, 31]: 4 (mortality of at least 70% and less than 90%) | J: common ragweed, herbicidal effect [24, 31]: 3 (mortality of at least 40% and less than 70%) | E: giant foxtail, herbicidal effect [25, 31]: 1 (mortality of at least 5% and less than 20%) | D: large crabgrass, herbicidal effect [26, 31]: 1 (mortality of at least 5% and less than 20%) | M: posumbu knotweed, herbicidal effect [27, 31]: 3 (mortality of at least 40% and less than 70%) | K: redroot pigweed, herbicidal effect [28, 31]: 3 (mortality of at least 40% and less than 70%) | I: velvetleaf, herbicidal effect [29, 31]: 3 (mortality of at least 40% and less than 70%) | G: water foxtail, herbicidal effect [30, 31]: 5 (mortality of 90% or above (nearly complete death))
